Test results as given in patent US20080004272A1, “Compositions and methods for modulating gated ion channels” (PainCeptor Pharma Corporation, priority 2006, published 2008).
pIC50: −log10 of the molar value. Like-named read-outs stand apart in the source and are kept apart here.

Target: T1, ASIC1a (Homo sapiens, UniProt P78348)
T1 sequence (P78348 1-528): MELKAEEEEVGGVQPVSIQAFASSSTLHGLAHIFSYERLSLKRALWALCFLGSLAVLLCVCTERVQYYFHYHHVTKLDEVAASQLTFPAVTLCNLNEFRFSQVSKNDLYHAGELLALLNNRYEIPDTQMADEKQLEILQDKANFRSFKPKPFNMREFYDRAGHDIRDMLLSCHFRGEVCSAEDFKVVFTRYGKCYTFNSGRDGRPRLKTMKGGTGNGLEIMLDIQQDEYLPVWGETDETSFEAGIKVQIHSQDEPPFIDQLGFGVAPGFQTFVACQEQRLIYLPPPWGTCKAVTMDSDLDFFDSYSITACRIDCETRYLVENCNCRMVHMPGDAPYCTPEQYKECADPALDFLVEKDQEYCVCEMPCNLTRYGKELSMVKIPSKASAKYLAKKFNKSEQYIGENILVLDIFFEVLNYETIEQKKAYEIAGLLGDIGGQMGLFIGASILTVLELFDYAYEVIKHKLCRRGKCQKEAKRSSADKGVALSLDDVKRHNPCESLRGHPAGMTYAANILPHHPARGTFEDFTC
Experiment: Whole cell patch clamp in HEK293 cells transfected with hASIC1a
Assay type: cell-based
Set-up: expressed in transfected cells; host or cells: Xenopus laevis oocytes (nuclear microinjection of expression vector such as pcDNA3)
Experimental: Another example of an in vitro assessment method consists of using mammalian heterologous expression systems, which are known to the skilled in the art, and include a variety of mammalian cell lines such as COS, HEK, e.g., HEK293 and/or CHO, cells. Cell lines are transfected with gated ion channel(s) and used to perform electrophysiology as follows:
All experiments are performed at room temperature (20-25° C.) in voltage clamp using conventional whole cell patch clamp methods (Neher, E., et al. (1978) Pfluegers Arch 375:219-228).
The amplifier used is the EPC-9 (HEKA-electronics, Lambrect, Germany) run by a Macintosh G3 computer via an ITC-16 interface. Experimental conditions are set with the Pulse-software accompanying the amplifier. […]
Coverslips with the cells are transferred to a 15 μl experimental chamber mounted on the stage of an inverted microscope (IMT-2, Olympus) supplied with Nomarski optics. […] The cells are held at a holding voltage of −60 mV and at the start of each experiment the current is continuously measured for 45 s to ensure a stable baseline. […] Current amplitudes are measured at the peak of the responses, and effect of the compounds is calculated as the amplitude at compound equilibrium divided by the amplitude of the current evoked by the pulse just before the compound is included. […]

SMILES	pIC50	pIC50 (HEK293 cells, whole cell patch clamp, six point dose-response, read-out: IC50, inhibition of acid-induced hASIC1a activity)
CN1CCc2c(-c3ccccc3)cc(C#N)c(N)c2C1 [Compound 203, 8-Amino-2-methyl-5-phenyl-1,2,3,4-tetrahydro-isoquinoline-7-carbonitrile]	5.12	–
COc1ccc(F)cc1-c1cc(C#N)c(N)c2c1CCN(C)C2 [Compound 206, 8-Amino-5-(5-fluoro-2-methoxy-phenyl)-2-methyl-1,2,3,4-tetrahydro-isoquinoline-7-carbonitrile]	–	4.55
